Measured values: patent US10227347B2, “Purinyl-N-hydroxyl pyrimidine formamide derivative, preparation methods and uses thereof” (Guizhou Bailing Group Pharmaceutical CO., LTD., priority 2015, dated 2019)
Read-outs that look alike come from different tables or passages of the source.

What was measured:
[1] = target: T1, HDAC8 (Homo sapiens, UniProt Q9BY41); test: HDAC8 enzyme inhibition (Lys-Ac-AMC); assay type: biochemical; conditions: Table 4, graded
T1 construct: purchased BPS Bioscience 50008
T1 sequence (Q9BY41 1-377): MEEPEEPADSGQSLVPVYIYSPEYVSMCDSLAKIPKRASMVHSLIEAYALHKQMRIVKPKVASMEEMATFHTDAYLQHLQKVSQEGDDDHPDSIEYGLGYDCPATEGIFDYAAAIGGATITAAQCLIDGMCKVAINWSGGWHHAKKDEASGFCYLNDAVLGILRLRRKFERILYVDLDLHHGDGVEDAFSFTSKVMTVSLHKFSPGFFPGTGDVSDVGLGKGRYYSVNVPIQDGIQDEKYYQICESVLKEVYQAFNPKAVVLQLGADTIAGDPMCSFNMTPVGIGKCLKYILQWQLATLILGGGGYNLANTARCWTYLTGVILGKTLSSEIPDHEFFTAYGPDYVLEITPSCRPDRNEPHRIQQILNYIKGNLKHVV
Experimental: (§1) Determining the inhibition capability of HDAC through the substrate method of fluorophore coupled acetylized peptide fragment (Lys-Ac-AMC). HDAC2-11 proteins of subtypes are purchased from BPS Bioscience Company with the Art. […] The reaction buffer system is a modified Tris buffer (pH7.0). The small molecule compounds are prepared and dissolved with 100% DMSO. […] Adding the compound into the reaction wells of the 384 well plate at the designed concentration, then adding 15 μL HDAC enzyme solution into the reaction wells (adding 15 μL blank buffer into the control well 0) for incubation under ambient temperature for 15 min; then adding 10 μL substrate solution to start reaction.
(§2) Analyzing the result data with the software GraphPad Prism and calculating the value of IC50 as per the formula: Y=background data+(top data−background data)/(1+10^((Log IC50−X)*rate of curve)). Where, Y refers to the inhibition ratio (%) and X refers to the compound concentration.

[2] = target: T2, PI3Kβ (Homo sapiens, UniProt P42338); test: PI3Kβ activity inhibition (ADP-Glo); assay type: biochemical
T2 construct: purchased Millipore 14-603-K
Experimental: Detecting the inhibition capability of the compound to PI3Kβ and PI3Kγ activities with ADP-Glo (purchased from Promege Company; Catalog No.: v9102/3). […] The reaction system also comprises substrates as PIP2 and ATP. The reaction buffer system comprises 50 mM HEPES, 3 mM MgCl2, 1 mM EGTA, 100 mM NaCl, 0.03% CHAPS and 2 mM DTT. The pH value of the reaction buffer is 7.5. […] Mixing the system evenly for incubation under ambient temperature for 1 h; getting a new 384 well plate and transferring 5 μL reaction liquid from the each well of original 384 well plate to the corresponding wells of the new 384 well plate; adding 5 μL ADP-Glo which has been preheated to ambient temperature into each new reaction well to terminate the reaction; oscillating it slowly in dark place for 40 min's incubation after it is mixed evenly; adding 10 μL testing liquid in each reaction well, oscillating it for 1 min to mix evenly and incubating it for 1 h, then measuring the fluorescence intensity with a microplate reader and analyzing the result data with the software GraphPad Prism.
(§3) Calculating the value of IC50 as per the formula: Y=background data+(top data−background data)/(1+10^((Log IC50−X)*rate of curve))
(§4) Where, Y refers to the inhibition ratio (%) and X refers to the compound concentration.

[3] = tested on: hct116 cells (colon cancer); test: Cell proliferation inhibition, hct116 (MTT); assay type: cell-based; conditions: Homo sapiens, HCT-116
Method in brief: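 Cells seeded at 2000-3000/well; adherent lines dosed after attachment, then 96 h incubation with compound. Viability read by MTT for solid-tumour lines (HCT116, A2780s) and CCK-8 for MV4-11; IC50 from four-parameter logistic fit of inhibition ratio versus concentration.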

[4] = target: T3, HDAC2 (Homo sapiens, UniProt Q92769); test: HDAC2 enzyme inhibition (Lys-Ac-AMC); assay type: biochemical; conditions: Table 4, graded
T3 construct: purchased BPS Bioscience 50002
Experimental: as §1, §2

[5] = target: T4, PI3Kα (Homo sapiens, UniProt P42336); test: PI3Kα activity inhibition (Kinase-Glo); assay type: biochemical
T4 construct: purchased Invitrogen PV4788
Method in brief: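 Kinase-Glo luminescence read-out of remaining ATP after PI3K reaction with PIP2 and ATP substrates in 50 mM HEPES pH 7.5, 3 mM MgCl2, 1 mM EGTA, 100 mM NaCl, 0.03% CHAPS, 2 mM DTT. Incubated at ambient temperature, 1 h for PI3Kα, 2 h for PI3Kδ. IC50 from four-parameter fit of % inhibition versus concentration.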

[6] = tested on: SUDHL-4 cells (B-cell lymphoma); test: Proliferation inhibition, SUDHL-4 (cck-8); assay type: cell-based; conditions: Homo sapiens, SU-DHL-4; 96 h incubation
From the text: (§5) Calculating the value of IC50 as per the formula: Y=background data+(top data−background data)/(1+10^((Log IC50−X)*rate of curve)). Where, Y refers to the inhibition ratio (%) and X refers to the compound concentration.

[7] = tested on: U266 cells (multiple myeloma); test: Proliferation inhibition, U266 (cck-8); assay type: cell-based; conditions: Homo sapiens, U-266; 96 h incubation
From the text: as §5

[8] = target: T5, HDAC3 (Homo sapiens, UniProt O15379); test: HDAC3 enzyme inhibition (Lys-Ac-AMC); assay type: biochemical; conditions: Table 4, graded
T5 construct: purchased BPS Bioscience 50003
Experimental: as §1, §2

[9] = target: T6, PI3Kδ (Homo sapiens, UniProt O00329); test: PI3Kδ activity inhibition (Kinase-Glo); assay type: biochemical
T6 construct: purchased Millipore 14-604-K
Experimental: Detecting the inhibition capability of the compound to PI3Kα and PI3Kδ activities with Kinase-Glo (purchased from Promege Company; Catalog No.: V3771). […] The reaction system also comprises substrates as PIP2 (4, 5-diphosphoinositide, purchased from Life Technologies Company) and ATP (triphosadenine, purchased from Sigma Company). The reaction buffer system comprises 50 mM HEPES (4-hydroxyethylpiperazine ethane sulfonic acid), 3 mM MgCl2, 1 mM EGTA (ethylene glycol bis(2-amino ethylether)quadrol), 100 mM NaCl, 0.03% CHAPS (3-[3-(cholamidopropyl)dimethylamino]-1-propanesulfonic acid), 2 mM DTT (dithiothreitol). The pH value of the reaction buffer is 7.5. […] Mixing the system evenly for incubation under ambient temperature (for 1 h in PI3Kα test and for 2 h in PI3Kδ test). After incubation, adding 10 μL Kinase-Glo which has been preheated to ambient temperature into each reaction well to terminate the reaction; shaking it in dark place for 15 min after it is mixed evenly, then measuring the fluorescence intensity with a microplate reader and analyzing the result data with the software GraphPad Prism.
as §3, §4

[10] = 96 h incubation, read-out: Proliferation IC50, Colon cancer hct116
[11] = Table 1, graded, read-out: PI3Kα IC50
[12] = Table 4, graded, read-out: PI3Kα IC50

T3 sequence (Q92769 whole entry, species assumed): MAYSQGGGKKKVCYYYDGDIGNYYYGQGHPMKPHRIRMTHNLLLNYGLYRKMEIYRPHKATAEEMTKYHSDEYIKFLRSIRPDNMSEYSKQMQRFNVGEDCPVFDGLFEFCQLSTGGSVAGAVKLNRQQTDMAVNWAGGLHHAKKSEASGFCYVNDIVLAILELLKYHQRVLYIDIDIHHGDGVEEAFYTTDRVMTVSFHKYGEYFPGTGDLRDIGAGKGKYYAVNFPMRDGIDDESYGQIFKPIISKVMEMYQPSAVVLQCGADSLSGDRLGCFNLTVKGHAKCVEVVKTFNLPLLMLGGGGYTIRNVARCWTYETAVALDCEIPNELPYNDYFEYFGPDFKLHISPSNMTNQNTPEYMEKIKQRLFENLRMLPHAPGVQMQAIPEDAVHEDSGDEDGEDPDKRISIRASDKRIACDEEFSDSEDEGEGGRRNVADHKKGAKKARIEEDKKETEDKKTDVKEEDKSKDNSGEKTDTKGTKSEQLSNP
T6 sequence (O00329 whole entry): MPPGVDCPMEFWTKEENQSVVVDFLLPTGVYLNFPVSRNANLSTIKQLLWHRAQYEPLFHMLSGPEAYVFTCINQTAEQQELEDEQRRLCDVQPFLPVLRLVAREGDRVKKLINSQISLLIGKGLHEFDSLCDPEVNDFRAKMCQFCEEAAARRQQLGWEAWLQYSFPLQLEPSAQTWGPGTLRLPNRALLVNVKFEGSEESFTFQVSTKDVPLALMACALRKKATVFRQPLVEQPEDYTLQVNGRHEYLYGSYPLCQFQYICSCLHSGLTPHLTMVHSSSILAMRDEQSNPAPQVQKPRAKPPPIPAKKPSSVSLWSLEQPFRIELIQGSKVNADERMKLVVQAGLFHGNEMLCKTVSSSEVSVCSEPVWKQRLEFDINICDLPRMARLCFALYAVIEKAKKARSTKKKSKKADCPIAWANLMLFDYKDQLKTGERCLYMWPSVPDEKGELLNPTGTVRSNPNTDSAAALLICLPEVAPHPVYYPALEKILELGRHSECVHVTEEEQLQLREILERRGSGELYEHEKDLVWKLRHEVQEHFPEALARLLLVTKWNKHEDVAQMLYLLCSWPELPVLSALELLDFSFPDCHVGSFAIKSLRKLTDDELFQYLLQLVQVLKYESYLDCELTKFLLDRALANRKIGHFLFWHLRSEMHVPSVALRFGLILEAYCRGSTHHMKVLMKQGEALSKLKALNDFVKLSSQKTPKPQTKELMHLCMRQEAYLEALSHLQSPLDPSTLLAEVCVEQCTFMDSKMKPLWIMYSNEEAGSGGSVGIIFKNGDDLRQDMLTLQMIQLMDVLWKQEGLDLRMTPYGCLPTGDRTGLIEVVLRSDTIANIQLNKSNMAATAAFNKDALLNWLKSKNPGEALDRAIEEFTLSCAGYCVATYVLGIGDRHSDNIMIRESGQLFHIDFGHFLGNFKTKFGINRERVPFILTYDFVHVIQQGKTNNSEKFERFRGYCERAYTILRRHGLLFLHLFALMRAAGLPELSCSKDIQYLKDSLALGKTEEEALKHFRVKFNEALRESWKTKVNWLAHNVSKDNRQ
T6 sequence (P27986 whole entry partner): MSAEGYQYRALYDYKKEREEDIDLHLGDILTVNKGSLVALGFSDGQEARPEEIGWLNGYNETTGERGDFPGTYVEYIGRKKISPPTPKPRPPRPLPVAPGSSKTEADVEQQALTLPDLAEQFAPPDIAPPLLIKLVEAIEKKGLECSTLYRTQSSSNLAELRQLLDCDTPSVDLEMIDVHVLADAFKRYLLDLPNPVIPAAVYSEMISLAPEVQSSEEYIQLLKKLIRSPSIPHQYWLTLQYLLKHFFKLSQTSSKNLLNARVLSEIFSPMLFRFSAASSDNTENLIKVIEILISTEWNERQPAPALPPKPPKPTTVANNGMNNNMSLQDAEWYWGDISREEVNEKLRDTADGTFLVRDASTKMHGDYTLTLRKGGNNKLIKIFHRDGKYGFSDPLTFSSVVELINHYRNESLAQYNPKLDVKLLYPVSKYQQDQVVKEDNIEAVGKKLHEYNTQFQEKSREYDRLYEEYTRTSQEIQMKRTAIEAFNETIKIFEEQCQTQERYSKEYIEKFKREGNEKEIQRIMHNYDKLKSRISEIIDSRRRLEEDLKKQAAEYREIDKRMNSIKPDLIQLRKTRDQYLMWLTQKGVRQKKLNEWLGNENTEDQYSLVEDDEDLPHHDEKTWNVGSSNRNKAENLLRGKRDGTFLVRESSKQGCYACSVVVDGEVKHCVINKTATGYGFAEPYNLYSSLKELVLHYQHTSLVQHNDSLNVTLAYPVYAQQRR
T5 sequence (O15379 whole entry, species assumed): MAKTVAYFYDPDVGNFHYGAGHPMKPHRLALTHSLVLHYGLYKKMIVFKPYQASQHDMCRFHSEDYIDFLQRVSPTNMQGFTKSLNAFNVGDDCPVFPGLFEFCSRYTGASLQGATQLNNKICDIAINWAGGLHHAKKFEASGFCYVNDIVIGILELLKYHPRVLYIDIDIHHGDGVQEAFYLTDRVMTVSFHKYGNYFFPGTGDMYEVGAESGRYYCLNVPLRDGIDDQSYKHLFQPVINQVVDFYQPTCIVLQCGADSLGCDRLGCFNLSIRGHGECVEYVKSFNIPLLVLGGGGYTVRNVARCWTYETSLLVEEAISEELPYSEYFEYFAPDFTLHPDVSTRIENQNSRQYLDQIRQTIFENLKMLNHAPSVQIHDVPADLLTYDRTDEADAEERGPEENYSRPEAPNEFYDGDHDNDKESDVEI
T5 sequence (Q9Y618 395-489 partner limits assumed, species assumed): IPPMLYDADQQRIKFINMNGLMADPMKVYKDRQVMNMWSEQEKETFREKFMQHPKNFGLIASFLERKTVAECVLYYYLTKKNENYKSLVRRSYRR
T2 sequence (P42338 whole entry, species assumed): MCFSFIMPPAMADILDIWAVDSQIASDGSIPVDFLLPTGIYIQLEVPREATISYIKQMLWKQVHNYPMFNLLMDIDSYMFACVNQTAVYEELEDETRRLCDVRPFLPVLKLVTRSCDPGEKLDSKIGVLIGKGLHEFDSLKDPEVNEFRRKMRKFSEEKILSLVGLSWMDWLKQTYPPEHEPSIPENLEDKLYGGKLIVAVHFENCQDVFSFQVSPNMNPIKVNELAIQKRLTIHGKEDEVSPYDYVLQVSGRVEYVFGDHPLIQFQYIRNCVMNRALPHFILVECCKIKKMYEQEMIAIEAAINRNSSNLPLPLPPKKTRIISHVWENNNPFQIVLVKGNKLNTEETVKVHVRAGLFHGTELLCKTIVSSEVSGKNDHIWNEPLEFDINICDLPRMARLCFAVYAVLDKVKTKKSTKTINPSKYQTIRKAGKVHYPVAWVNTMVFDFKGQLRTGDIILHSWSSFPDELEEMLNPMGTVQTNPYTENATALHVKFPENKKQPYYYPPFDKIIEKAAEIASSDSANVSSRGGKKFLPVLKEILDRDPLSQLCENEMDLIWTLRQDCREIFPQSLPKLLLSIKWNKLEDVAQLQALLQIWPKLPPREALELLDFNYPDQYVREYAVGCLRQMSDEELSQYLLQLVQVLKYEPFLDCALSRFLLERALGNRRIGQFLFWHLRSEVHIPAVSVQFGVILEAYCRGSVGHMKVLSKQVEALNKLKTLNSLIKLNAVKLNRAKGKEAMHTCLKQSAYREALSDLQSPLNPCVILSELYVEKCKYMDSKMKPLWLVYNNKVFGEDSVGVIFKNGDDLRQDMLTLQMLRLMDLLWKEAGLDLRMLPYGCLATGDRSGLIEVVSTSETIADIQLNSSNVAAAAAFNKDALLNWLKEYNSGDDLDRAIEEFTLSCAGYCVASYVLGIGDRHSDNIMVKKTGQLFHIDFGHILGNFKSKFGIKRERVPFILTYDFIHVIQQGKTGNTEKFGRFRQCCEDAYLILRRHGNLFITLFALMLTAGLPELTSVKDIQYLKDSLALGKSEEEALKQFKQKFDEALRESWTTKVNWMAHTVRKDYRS
T2 sequence (P27986 whole entry partner, species assumed): as the sequence (P27986 whole entry partner) above
T4 sequence (P42336 whole entry, species assumed): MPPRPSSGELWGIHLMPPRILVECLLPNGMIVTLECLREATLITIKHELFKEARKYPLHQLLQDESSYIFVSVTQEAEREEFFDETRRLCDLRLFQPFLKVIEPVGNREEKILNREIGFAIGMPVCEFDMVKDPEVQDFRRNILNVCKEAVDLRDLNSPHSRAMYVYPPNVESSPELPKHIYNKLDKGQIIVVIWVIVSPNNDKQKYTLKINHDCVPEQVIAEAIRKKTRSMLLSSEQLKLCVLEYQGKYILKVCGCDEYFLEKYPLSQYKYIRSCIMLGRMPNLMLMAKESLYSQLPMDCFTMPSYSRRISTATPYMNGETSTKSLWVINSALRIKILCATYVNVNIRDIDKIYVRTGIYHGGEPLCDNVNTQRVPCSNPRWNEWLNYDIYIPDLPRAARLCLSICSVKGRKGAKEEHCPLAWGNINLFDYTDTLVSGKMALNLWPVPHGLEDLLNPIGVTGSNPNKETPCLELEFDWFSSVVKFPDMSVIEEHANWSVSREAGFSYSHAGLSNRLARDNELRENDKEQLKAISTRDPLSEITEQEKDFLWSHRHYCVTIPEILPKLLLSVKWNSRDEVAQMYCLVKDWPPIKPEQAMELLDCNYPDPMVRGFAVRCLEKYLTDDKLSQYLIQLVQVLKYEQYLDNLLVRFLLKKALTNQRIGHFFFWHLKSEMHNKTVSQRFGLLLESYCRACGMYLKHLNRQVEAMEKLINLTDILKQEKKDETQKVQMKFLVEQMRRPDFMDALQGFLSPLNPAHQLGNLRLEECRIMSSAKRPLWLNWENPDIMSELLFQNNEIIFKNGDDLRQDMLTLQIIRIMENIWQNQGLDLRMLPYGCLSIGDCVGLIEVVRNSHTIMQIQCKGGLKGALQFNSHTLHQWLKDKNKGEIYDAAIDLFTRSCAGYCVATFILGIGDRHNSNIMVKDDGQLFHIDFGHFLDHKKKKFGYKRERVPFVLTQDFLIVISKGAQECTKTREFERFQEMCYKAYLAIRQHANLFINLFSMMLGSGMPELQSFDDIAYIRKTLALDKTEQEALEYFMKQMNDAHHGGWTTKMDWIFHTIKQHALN
T4 sequence (P27986 whole entry partner, species assumed): as the sequence (P27986 whole entry partner) above

SMILES | IC50 [1] [nM] | IC50 ([2]; Table 1, graded) [nM] | IC50 ([2]; Table 4, graded) [nM] | IC50 [3, 10] [nM] | IC50 [4] [nM] | IC50 [5, 11] [nM] | IC50 [5, 12] [nM] | IC50 [6] [nM] | IC50 [7] [nM] | IC50 [8] [nM] | IC50 ([9]; Table 1, graded) [nM] | IC50 ([9]; Table 4, graded) [nM] | IC50 ([5]; read-out: inhibition value IC50 to the activity of PI3Kα) [nM] | IC50 ([3]; read-out: IC50 to proliferation of hct116 cells) [nM]
COc1ccc(-c2nc(N3CCOCC3)c3nc(CN(C)c4ncc(C(=O)NO)cn4)n(C)c3n2)cn1 [CLJ-1, 2-(((2-(6-methoxypyridine-3-yl)-9-methyl-6-morpholine-9H-purine-8-yl))methyl(methyl)amino)-N-hydroxyl pyrimidine-5-formamide] | 100 to 1000 | 1000 to 10000 | 1000 to 10000 | 10 to 100 | 1 to 100 | 1000 to 10000 | 1000 to 10000 | 1 to 10 | 0.1 to 1 | 1 to 100 | 100 to 1000 | 100 to 1000 | – | –
CN(Cc1nc2c(N3CCOCC3)nc(-c3cnc(N)nc3)nc2n1C)c1ncc(C(=O)NO)cn1 [CLJ-11, 2-(((2-(2-aminopyrimidine-5-yl)-9-methyl-6-morpholine-9H-purine-8-yl))methyl(methyl)amino)-N-hydroxyl pyrimidine-5-formamide] | 1 to 100 | 100 to 1000 | 1 to 100 | 10 to 100 | 1 to 100 | < 100 | 1 to 100 | 10 to 100 | 10 to 100 | 1 to 100 | 100 to 1000 | 1 to 100 | < 100 | –
COc1ccc(-c2nc(N3CCOCC3)c3nc(CN(C)c4ncc(C(=O)NO)cn4)n(C)c3n2)cc1 [CLJ-29, 2-(((2-(4-methoxyphenyl)-9-methyl-6-morpholine-9H-purine-8-yl))methyl(methyl)amino)-N-hydroxyl pyrimidine-5-formamide] | 1 to 100 | – | > 10000 | 0.1 to 10 | 1 to 100 | > 10000 | > 10000 | 0.1 to 1 | 0.1 to 1 | 1 to 100 | – | > 10000 | – | 0.1 to 10
CN(Cc1nc2c(N3CCOCC3)nc(-c3ccc(N)cc3)nc2n1C)c1ncc(C(=O)NO)cn1 [CLJ-44] | 1 to 100 | – | > 10000 | 10 to 100 | 1 to 100 | 1000 to 10000 | 1000 to 10000 | 1 to 10 | 1 to 10 | 1 to 100 | – | > 10000 | – | –
Cc1[nH]c2ccccc2c1CCNCc1ccc(/C=C/C(=O)NO)cc1 [LBH589, panobinostat, reference compound] | – | – | > 10000 | 0.1 to 10 | – | – | > 10000 | 1 to 10 | 1 to 10 | – | – | > 10000 | – | –
